Specific activity data for 1 molecule are collected here from article PMC3528340 (Journal of the American Chemical Society, 2012).

One test deals with T1, EcGlyA (E. coli SHMT) (Escherichia coli, UniProt P0A825).
T1 sequence (P0A825 1-417): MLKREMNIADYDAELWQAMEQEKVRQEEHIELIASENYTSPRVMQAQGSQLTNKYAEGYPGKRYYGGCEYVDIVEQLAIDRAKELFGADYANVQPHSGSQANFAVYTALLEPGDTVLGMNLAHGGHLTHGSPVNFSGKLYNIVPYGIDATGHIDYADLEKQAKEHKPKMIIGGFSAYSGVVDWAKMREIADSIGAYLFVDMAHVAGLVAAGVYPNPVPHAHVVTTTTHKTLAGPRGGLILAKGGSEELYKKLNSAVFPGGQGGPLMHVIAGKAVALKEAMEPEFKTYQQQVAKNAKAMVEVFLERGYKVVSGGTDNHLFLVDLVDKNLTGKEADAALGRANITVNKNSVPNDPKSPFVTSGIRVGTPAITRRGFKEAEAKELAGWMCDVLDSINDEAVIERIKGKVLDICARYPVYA
In words: aldehyde dehydrogenase-coupled retro-aldol assay, A340. It counts as biochemical. Conditions: L-Thr only, no aldehyde acceptor.

The target of test [1] is T2, EcLTA (E. coli L-Thr aldolase, EC 4.1.24) (Escherichia coli, UniProt P75823).
T2 sequence (P75823 1-333): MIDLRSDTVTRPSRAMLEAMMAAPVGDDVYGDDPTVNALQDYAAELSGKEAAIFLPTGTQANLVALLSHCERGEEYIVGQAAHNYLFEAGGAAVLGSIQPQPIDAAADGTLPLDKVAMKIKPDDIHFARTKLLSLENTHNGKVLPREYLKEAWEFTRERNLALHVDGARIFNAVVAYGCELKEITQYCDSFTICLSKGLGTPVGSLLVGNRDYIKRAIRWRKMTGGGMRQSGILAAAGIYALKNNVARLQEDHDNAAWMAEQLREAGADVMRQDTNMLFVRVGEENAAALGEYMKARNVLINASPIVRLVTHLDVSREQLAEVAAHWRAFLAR
The description is as above. It counts as biochemical. The note with it: L-Thr only, no aldehyde acceptor.

Consider `C[C@@H](O)[C@H](N)C(=O)O` [L-Thr], for which the specific activity entry on EcGlyA (E. coli SHMT) is “EcLTA, and EcGlyA were shown to catalyze a retro-aldol-type reaction in the presence of only L-Thr”; in test [1] it was “EcLTA, and EcGlyA were shown to catalyze a retro-aldol-type reaction in the presence of only L-Thr”.
